Reference: US20140107109A1, “AMINO-DIHYDROTHIAZINE AND AMINO-DIOXIDO DIHYDROTHIAZINE COMPOUNDS AS BETA-SECRETASE ANTAGONISTS AND METHODS OF USE” (Amgen Inc., priority 2012, published 2014)

Key:
[1] = molecular target: Beta Secretase enzyme (BACE1) (Homo sapiens, UniProt P56817); assay: In vitro enzymatic BACE FRET assay; format: biochemical; settings: average IC50, enzyme assay; read-out: BACE1 FRET assay IC50
Outline: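 Readout: dequenched fluorescence (ex 488 nm/[…]) after neutralizing with Tris buffer. Reactions, begun by adding 50 nM quenched peptide substrate spanning the BACE cleavage site, were incubated one hour at pH 4.2 in 0.05 M acetate with 100 uM genapol and 10% final DMSO.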

[2] = tested on: Aβ40 in conditioned medium of cells stably expressing Amyloid Precursor Protein (APP); assay: In vitro BACE cell-based assay (HEK cell assay), Aβ40 sandwich ELISA; settings: Homo sapiens, HEK293; average IC50, cell assay
Outline: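 Aβ40 in conditioned medium was quantified by time-resolved fluorescence sandwich ELISA (pAb40 capture 3 h at 4 °C, biotin-6E10 detection 2 h at 4 °C) after 24 h compound exposure of APP-expressing cells. Doses spanned 10 points from 100 μM or 10 μM top, 0.1% DMSO; IC50 was derived from percent of control.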

[3] = molecular target: T1, Cathepsin D (Cat D) (Homo sapiens, UniProt P07339); assay: In vitro enzymatic Cathepsin D (Cat D) FRET assay; format: biochemical; settings: read-out: CatD IC50
T1 construct: Recombinant Cat D was expressed in CHO cells; made in house; host or cells: CHO cells
Outline: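 FRET read-out: a fluorophore/quencher-labelled peptide substrate is cleaved by 9 nM Cat D (recombinant, CHO-expressed) following a one-hour preincubation with inhibitor dilutions in DMSO. Tris buffer added to neutralize pH ends the reaction before fluorescence measurement.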

Sequence of Beta Secretase enzyme (BACE1) (P56817 46-501): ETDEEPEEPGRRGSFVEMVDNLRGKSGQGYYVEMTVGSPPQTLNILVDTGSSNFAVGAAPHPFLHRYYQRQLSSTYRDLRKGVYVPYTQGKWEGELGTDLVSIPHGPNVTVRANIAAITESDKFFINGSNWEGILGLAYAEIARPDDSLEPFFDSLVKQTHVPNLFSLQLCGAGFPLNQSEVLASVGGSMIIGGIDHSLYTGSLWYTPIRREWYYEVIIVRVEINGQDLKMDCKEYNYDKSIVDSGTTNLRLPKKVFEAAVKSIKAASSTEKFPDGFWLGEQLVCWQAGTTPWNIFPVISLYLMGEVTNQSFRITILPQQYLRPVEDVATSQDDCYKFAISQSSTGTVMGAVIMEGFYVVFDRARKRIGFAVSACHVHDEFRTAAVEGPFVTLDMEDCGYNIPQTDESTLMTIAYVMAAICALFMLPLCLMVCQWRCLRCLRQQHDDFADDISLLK
T1 sequence (P07339 65-412, species assumed): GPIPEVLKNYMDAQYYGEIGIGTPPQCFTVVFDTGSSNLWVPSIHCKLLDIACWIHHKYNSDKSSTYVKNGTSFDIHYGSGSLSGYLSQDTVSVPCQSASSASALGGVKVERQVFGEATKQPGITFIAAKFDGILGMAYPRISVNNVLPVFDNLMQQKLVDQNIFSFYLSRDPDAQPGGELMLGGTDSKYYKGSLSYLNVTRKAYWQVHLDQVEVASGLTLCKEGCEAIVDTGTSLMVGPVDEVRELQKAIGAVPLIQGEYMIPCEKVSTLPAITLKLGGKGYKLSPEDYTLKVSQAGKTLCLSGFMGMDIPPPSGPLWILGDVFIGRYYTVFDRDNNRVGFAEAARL

IC50 [1]	IC50 [2]	IC50 [3]	Structure (SMILES)
0.00203 µM	0.105 µM	> 14.8 µM	CC1(C)C(N)=N[C@](CF)(c2cc(Nc3nccc4nc(C(F)(F)F)cnc34)ccc2F)CS1(=O)=O [Example 234, N-(3-((3S)-5-amino-3-(fluoromethyl)-6,6-dimethyl-1,1-dioxido-3,6-dihydro-2H-1,4-thiazin-3-yl)-4-fluorophenyl)-2-(trifluoromethyl)pyrido[3,4-b]pyrazin-5-amine]
0.00326 µM	0.0308 µM	68.2 µM	CC1(C)C(N)=N[C@](CF)(c2cc(Nc3ncnc4cc(Cl)cnc34)ccc2F)CS1(=O)=O [Example 235, N-(3-((3S)-5-amino-3-(fluoromethyl)-6,6-dimethyl-1,1-dioxido-3,6-dihydro-2H-1,4-thiazin-3-yl)-4-fluorophenyl)-7-chloropyrido[3,2-d]pyrimidin-4-amine]
0.00073 µM	0.0407 µM	56.1 µM	CC1(C)C(N)=N[C@](CF)(c2cc(Nc3ncnc4cc(C#N)cnc34)ccc2F)CS1(=O)=O [Example 236, 4-((3-((3S)-5-amino-3-(fluoromethyl)-6,6-dimethyl-1,1-dioxido-3,6-dihydro-2H-1,4-thiazin-3-yl)-4-fluorophenyl)amino)pyrido[3,2-d]pyrimidine-7-carbonitrile]
0.00285 µM	0.0409 µM	661 µM	CCOc1cnc2c(Nc3ccc(F)c([C@]4(CF)CS(=O)(=O)C(C)(C)C(N)=N4)c3)nccc2n1 [Example 237, N-(3-((3S)-5-amino-3-(fluoromethyl)-6,6-dimethyl-1,1-dioxido-3,6-dihydro-2H-1,4-thiazin-3-yl)-4-fluorophenyl)-2-ethoxypyrido[3,4-b]pyrazin-5-amine]
0.00399 µM	0.117 µM	> 400 µM	CCOc1cnc2c(Nc3ccc(F)c([C@]4(CF)CS(=O)(=O)C5(CCC5)C(N)=N4)c3)nccc2n1 [Example 238, N-(3-((7S)-9-amino-7-(fluoromethyl)-5,5-dioxido-5-thia-8-azaspiro[3.5]non-8-en-7-yl)-4-fluorophenyl)-2-ethoxypyrido[3,4-b]pyrazin-5-amine]
0.00415 µM	0.0237 µM	390 µM	COc1cnc2c(Nc3ccc(F)c([C@]4(CF)CS(=O)(=O)C5(CCC5)C(N)=N4)c3)nccc2c1 [Example 239, N-(3-((7S)-9-amino-7-(fluoromethyl)-5,5-dioxido-5-thia-8-azaspiro[3.5]non-8-en-7-yl)-4-fluorophenyl)-3-methoxy-1,7-naphthyridin-8-amine]
0.0017 µM	0.0272 µM	57.1 µM	NC1=N[C@](CF)(c2cc(Nc3ncnc4cc(Cl)cnc34)ccc2F)CS(=O)(=O)C12CCC2 [Example 240, N-(3-((7S)-9-amino-7-(fluoromethyl)-5,5-dioxido-5-thia-8-azaspiro[3.5]non-8-en-7-yl)-4-fluorophenyl)-7-chloropyrido[3,2-d]pyrimidin-4-amine]
0.0009 µM	0.0479 µM	> 4.94 µM	N#Cc1cnc2c(Nc3ccc(F)c([C@]4(CF)CS(=O)(=O)C5(CCC5)C(N)=N4)c3)ncc(F)c2c1 [Example 241, 8-((3-((7S)-9-amino-7-(fluoromethyl)-5,5-dioxido-5-thia-8-azaspiro[3.5]non-8-en-7-yl)-4-fluorophenyl)amino)-5-fluoro-1,7-naphthyridine-3-carbonitrile]
0.00147 µM	0.014 µM	119 µM	COc1cnc2c(Nc3ccc(F)c([C@]4(CF)CS(=O)(=O)C5(CCC5)C(N)=N4)c3)ncnc2c1 [Example 242, N-(3-((7S)-9-amino-7-(fluoromethyl)-5,5-dioxido-5-thia-8-azaspiro[3.5]non-8-en-7-yl)-4-fluorophenyl)-7-methoxypyrido[3,2-d]pyrimidin-4-amine]
0.00056 µM	0.0465 µM	290 µM	NC1=N[C@](CF)(c2cc(Nc3nccc4cc(Cl)cnc34)ccc2F)CS(=O)(=O)C12CCC2 [Example 245, N-(3-((7S)-9-amino-7-(fluoromethyl)-5,5-dioxido-5-thia-8-azaspiro[3.5]non-8-en-7-yl)-4-fluorophenyl)-3-chloro-1,7-naphthyridin-8-amine]
0.00146 µM	0.0216 µM	811 µM	COc1cnc2c(Nc3ccc(F)c([C@]4(CF)CS(=O)(=O)C5(CCC5)C(N)=N4)c3)nccc2n1 [Example 246, N-(3-((7S)-9-amino-7-(fluoromethyl)-5,5-dioxido-5-thia-8-azaspiro[3.5]non-8-en-7-yl)-4-fluorophenyl)-2-methoxypyrido[3,4-b]pyrazin-5-amine]
0.704 µM	2.8 µM	477 µM	COc1cnc2c(Nc3ccc(F)c([C@@]45COC[C@@H]4S(=O)(=O)C(C)(C)C(N)=N5)c3)nccc2n1 [Example 247, N-(3-((4aR,7aR)-3-amino-2,2-dimethyl-1,1-dioxido-7,7a-dihydro-2H-furo[3,4-b][1,4]thiazin-4a(5H)-yl)-4-fluorophenyl)-2-methoxypyrido[3,4-b]pyrazin-5-amine]
0.00304 µM	0.0209 µM	199 µM	COc1cnc2c(Nc3ccc(F)c([C@]45COC[C@H]4S(=O)(=O)C(C)(C)C(N)=N5)c3)nccc2n1 [Example 248, N-(3-((4aS,7aS)-3-amino-2,2-dimethyl-1,1-dioxido-7,7a-dihydro-2H-furo[3,4-b][1,4]thiazin-4a(5H)-yl)-4-fluorophenyl)-2-methoxypyrido[3,4-b]pyrazin-5-amine]
0.00636 µM	0.153 µM	102 µM	CC1(C)C(N)=N[C@@]2(c3cc(Nc4nccc5[nH]c(=O)cnc45)ccc3F)COC[C@H]2S1(=O)=O [Example 249, 5-((3-((4aS,7aS)-3-amino-2,2-dimethyl-1,1-dioxido-7,7a-dihydro-2H-furo[3,4-b][1,4]thiazin-4a(5H)-yl)-4-fluorophenyl)amino)pyrido[3,4-b]pyrazin-2(1H)-one]
0.0212 µM	0.059 µM	113 µM	COc1cnc2c(Nc3ccc(F)c([C@@]4(C)N=C(N)C(C)(C)S(=O)(=O)C45CC5)c3)nccc2n1 [Example 250, N-(3-((8R)-6-amino-5,5,8-trimethyl-4,4-dioxido-4-thia-7-azaspiro[2.5]oct-6-en-8-yl)-4-fluorophenyl)-2-methoxypyrido[3,4-b]pyrazin-5-amine]
0.00058 µM	0.0135 µM	42.8 µM	C[C@]1(c2cc(Nc3nccc4cc(C#N)cnc34)ccc2F)N=C(N)C2(CCC2)S(=O)(=O)C1F (stereo partly drawn) [Example 251, 8-((3-((7R)-9-amino-6-fluoro-7-methyl-5,5-dioxido-5-thia-8-azaspiro[3.5]non-8-en-7-yl)-4-fluorophenyl)amino)-1,7-naphthyridine-3-carbonitrile]
1.21 µM	1.9 µM	35.9 µM	COc1ccc(CSc2ccc(F)c([C@]3(C)CS(=O)(=O)C(C)(C)C(N)=N3)c2)cc1 [Example 252, (5R)-5-(2-fluoro-5-((4-methoxybenzyl)sulfanyl)phenyl)-2,2,5-trimethyl-5,6-dihydro-2H-1,4-thiazin-3-amine 1,1-dioxide]
0.0276 µM	1.03 µM	1410 µM	CC1(C)C(N)=N[C@](C)(c2cc(Oc3nccc4nc(C(F)(F)F)cnc34)ccc2F)CS1(=O)=O [Example 253, (5R)-5-(2-fluoro-5-((2-(trifluoromethyl)pyrido[3,4-b]pyrazin-5-yl)oxy)phenyl)-2,2,5-trimethyl-5,6-dihydro-2H-1,4-thiazin-3-amine 1,1-dioxide]
0.0006 µM	0.0006 µM	354 µM	CC#CCOc1cnc2c(Nc3ccc(F)c([C@]4(C)CS(=O)(=O)C(C)(C)C(N)=N4)c3)nccc2c1 [Example 254, N-(3-((3R)-5-amino-3,6,6-trimethyl-1,1-dioxido-3,6-dihydro-2H-1,4-thiazin-3-yl)-4-fluorophenyl)-3-(2-butyn-1-yloxy)-1,7-naphthyridin-8-amine]
0.663 µM	3.99 µM	50.5 µM	CC1(C)C(N)=N[C@](C)(c2cc(Oc3cc(-c4ccc(C(F)(F)F)cc4)ccn3)ccc2F)CS1(=O)=O [Example 255, (5R)-5-(2-fluoro-5-((4-(4-(trifluoromethyl)phenyl)-2-pyridinyl)oxy)phenyl)-2,2,5-trimethyl-5,6-dihydro-2H-1,4-thiazin-3-amine 1,1-dioxide]
0.65 µM	1.82 µM	195 µM	Cc1cc(-c2cnc(Oc3ccc(F)c([C@]4(C)CS(=O)(=O)C(C)(C)C(N)=N4)c3)c(F)c2)on1 [Example 256, (5R)-5-(2-fluoro-5-((3-fluoro-5-(3-methyl-5-isoxazolyl)-2-pyridinyl)oxy)phenyl)-2,2,5-trimethyl-5,6-dihydro-2H-1,4-thiazin-3-amine 1,1-dioxide]
18.9 µM	7.79 µM	187 µM	CC(C)(C)Cc1ccc(Oc2ccc(F)c([C@]3(C)CS(=O)(=O)C(C)(C)C(N)=N3)c2)nc1 [Example 257, (5R)-5-(5-((5-(2,2-dimethylpropyl)-2-pyridinyl)oxy)-2-fluorophenyl)-2,2,5-trimethyl-5,6-dihydro-2H-1,4-thiazin-3-amine 1,1-dioxide]
